Values joined by “and” are separate entries in the source; they are usually repeats but may differ in a detail not shown here. Equal values may be shown once.

A short description of the series: solvent given as SMILES.

Regarding `C[Si]1(C)O[Si](C)(C)c2cc3c(-c4ccccc4)c4cc([N+](=O)[O-])ccc4nc3cc21`, the emission maximum (in ClCCl) is recorded as 521 nm.

The compound `O=S1(=O)C2=C(c3ccc(N(c4ccccc4)c4ccccc4)cc31)C1(C3=C(c4ccccc41)S(=O)(=O)c1cc(N(c4ccccc4)c4ccccc4)ccc13)c1ccccc12` registered an emission maximum (in C1CCOC1) of 561 nm; an emission maximum (in CC#N) of 598 nm; an emission maximum (in CCCCCC) of 521 nm; an emission maximum (in Cc1ccccc1) of 543 nm; an emission maximum (in ClCCl) of 577 nm.

Compound `Cc1ccc(S(=O)(=O)Nc2c(/C=C/c3ccccc3)sc(-c3ccc(N(C)C)cc3)c2-c2ccsc2)cc1` showed an emission maximum (in CC#N) of 627 nm.

Consider `O=c1c2cc(F)c(O)cc2oc2cc(O)c(F)cc12`, for which the emission maximum (in CCO) stood at 439 nm.

Compound `CCN(CC)c1ccc2cc(/C=C/C(=C(C#N)C#N)c3ccc(N(c4ccccc4)c4ccccc4)cc3)c(=O)oc2c1` gave an emission maximum (in CC(C)=O) of 621 nm; an emission maximum (in CCOC(C)=O) of 599 nm; an emission maximum (in CN(C)C=O) of 636 nm; an emission maximum (in CS(C)=O) of 643 nm; an emission maximum (in Cc1ccccc1) of 576 nm; an emission maximum (in ClCCl) of 581 nm.

`F[B-]1(F)n2c(nc(Br)c2Br)-c2cccc[n+]21`: the emission maximum was 463 nm (in C1CCCCC1); 484 nm (in C1CCOC1); 493 nm (in C1COCCO1); 492 nm (in CC#N); 464 nm (in CCCCCC); 487 nm (in CO). The compound also displayed an emission maximum (in ClC(Cl)Cl) of 469 nm.

Turning to `CC(C)(C)[Si](C)(C)C#Cc1c2c(=O)c3ccccc3c2c(C#C[Si](C)(C)C(C)(C)C)c2c(=O)c3ccccc3c12`, the emission maximum (in ClC(Cl)Cl) was 571 nm.

Consider `Nc1cc(N)cc(-c2nc3ccccc3s2)c1`, for which the emission maximum runs as follows: (in C1CCCCC1) 410.5 nm; (in C1COCCO1) 458 nm; (in CC#N) 482 nm; (in CC(C)O) 513 nm; (in CCOC(C)=O) 468 nm; (in CCOCC) 457 nm. In addition, the emission maximum is given as 519 nm (in CO) and 541 nm (in O).

`F[B-]1(F)n2c(-c3ccccc3)cc(-c3ccccc3)c2C=C2C(c3ccccc3)=CC(c3ccccc3)=[N+]21`: the emission maximum (in C1CCOC1) amounted to 601 nm.

For `O=P1(c2ccccc2)c2cc(N3c4ccccc4Oc4ccccc43)ccc2-c2ccc(N3c4ccccc4Oc4ccccc43)cc21`, the emission maximum (in Cc1ccccc1) came out at 540 nm and the emission maximum (in c1ccc2c(c1)c1ccccc1n2-c1ccc(-c2ccc(-n3c4ccccc4c4ccccc43)cc2)cc1) is reported as 550 nm.

The compound `CCCCCCn1c2cc(/C=C/c3ccccc3)ccc2c2ccc(/C=C/c3ccccc3)cc21` gave an emission maximum (in ClC(Cl)Cl) of 414.94 nm.

On to `CN(C)c1cccc2c1ccc1c(=O)oc(-c3ccc(C(F)(F)F)cc3)cc12`, for which the emission maximum reads like this: (in CC(C)=O) 611 nm; (in CCCCCCCCO) 585 nm; (in CCCCO) 586 nm; (in CCCO) 591 nm; (in CCO) 602 nm; (in CCOC(C)=O) 578 nm. Further, the emission maximum came to 614 nm (in CN(C)C=O), 612 nm (in CO) and 538 nm (in ClC(Cl)Cl).

As to `Cc1csc2[n+]1[B-](F)(F)n1c(c3cccc4cccc1c43)=N2`, the emission maximum turned out to be 500 nm (in C1CCOC1); 499 nm (in CC#N); 488 nm (in CCCCCC); 502 nm (in Cc1ccccc1); 527 nm (in ClCCl).

For the compound `C(=C\c1cccnc1)/c1ccc(Nc2ccccc2)cc1`, the emission maximum came out at 456 nm (in CC#N) and 385 nm (in CCCCCC).

As to `N#Cc1ccc(C#Cc2ccc(C#Cc3ccccc3C#N)cc2C#N)cc1`, the emission maximum (in ClC(Cl)Cl) is 370 nm.

Compound `CC(C)(C)c1ccc2oc3nc4oc5ccc(N(c6ccccc6)c6ccccc6)cc5c4cc3c2c1` displayed an emission maximum (in ClC(Cl)Cl) of 379 nm.

Turning to `Cc1nc(-c2cc(C(F)(F)F)ccc2O)n2c1CCCC2`, the emission maximum (in ClCCl) was found to be 432 nm.

`COc1ccc(C#Cc2c(C#Cc3ccc(OC)cc3)c(C#Cc3ccc(OC)cc3)c(C#Cc3ccc(OC)cc3)c(C#Cc3ccc(OC)cc3)c2C#Cc2ccc(OC)cc2)cc1` came in with an emission maximum (in ClCCl) of 466 nm.

The compound `F[B-]1(F)n2c(c3ccccc3c2-c2ccccc2)C(c2ccccc2)=C2c3ccccc3C(c3ccccc3)=[N+]21` came in with an emission maximum (in ClCCl) of 664 nm.

In the case of `CCCCCC(CC)C1(C(CC)CCCCC)c2ccccc2-c2ccc(C#Cc3cc(C#Cc4ccc5c(c4)C(C(CC)CCCCC)(C(CC)CCCCC)c4ccccc4-5)c4ccc5c(C#Cc6ccc7c(c6)C(C(CC)CCCCC)(C(CC)CCCCC)c6ccccc6-7)cc(C#Cc6ccc7c(c6)C(C(CC)CCCCC)(C(CC)CCCCC)c6ccccc6-7)c6ccc3c4c65)cc21` (stereo not drawn), the emission maximum (in C1CCCCC1) is 507 nm; the emission maximum (in C1CCOC1) is given as 513 nm; the emission maximum (in CCOC(C)=O) is 509 nm; the emission maximum (in CN(C)C=O) is given as 518 nm; the emission maximum (in Cc1ccccc1) is 513 nm; the emission maximum (in ClC(Cl)Cl) is reported as 514 nm. Under “in ClCCl”, this compound had an emission maximum of 514 nm.

Under “in CS(C)=O”, `c1ccc2[nH]c(-c3cc(-c4nc5ccccc5[nH]4)cc(-c4nc5ccccc5[nH]4)c3)nc2c1` came in with an emission maximum of 379.1 nm.

Take `COc1ccc2c3ccc(OC)cc3n(-c3ccc(-c4nnc(-c5c(C)cc(C)cc5C)o4)cc3C)c2c1`: for the setting “in Cc1ccccc1”, the emission maximum is 436 nm.

Consider `C(=C(c1ccccc1)c1ccccc1)c1ccc(-c2ccc(-c3nc4c5ccccc5c5ccccc5c4n3-c3cccc(-c4ccc(C=C(c5ccccc5)c5ccccc5)cc4)c3)cc2)cc1`, for which the emission maximum (in C1CCOC1) came to 449 nm.

Consider `CC(=O)Nc1ccccc1C(=O)OC1CC(C)CCC1C(C)C` (stereo not drawn), for which the emission maximum by setting is: (in C1CCCCC1) 363 nm; (in CC#N) 369 nm; (in CCO) 370 nm; (in Cc1ccccc1) 368 nm.

In turn, `COc1ccccc1C1=[N+]2C(=Cc3c4c(c(-c5ccccc5OC)n3[B-]2(F)F)C2CCC4CC2)C2=C1C1CCC2CC1` displayed an emission maximum (in ClCCl) of 583 nm.

As for `Cc1ccc(C2=C3C=c4c(oc5ccccc45)=[N+]3[B-](F)(F)n3c2cc2c4ccccc4oc23)cc1`, the emission maximum (in C1CCCCC1) is on record as 596.5 nm; the emission maximum (in C1CCOC1) came out at 596.5 nm; the emission maximum (in CC#N) is 595.5 nm; the emission maximum (in CCOC(C)=O) is 594.5 nm; the emission maximum (in CN(C)C=O) was found to be 598.5 nm; the emission maximum (in CO) was determined as 594.5 nm. For the same compound, the emission maximum was 603 nm (in Cc1ccccc1); 599 nm and 597 nm (in ClCCl).

Compound `Cc1cccc2[n+]1[B-](c1ccccc1)(c1ccccc1)c1cccc3c4c5c(cccc5c-2c13)[B-](c1ccccc1)(c1ccccc1)[n+]1c(C)cccc1-4` registered an emission maximum (in ClCCl) of 611 nm.

As to `CN(C)CCCN1c2ccccc2Sc2ccccc21`, the emission maximum is, setting by setting: (in CC#N) 444 nm; (in CO) 444 nm; (in O) 452 nm.

In the case of `N#CC1=CC=CC(C#N)=P1(c1ccccc1)c1ccccc1`, the emission maximum (in ClC(Cl)Cl) is recorded as 491 nm.

As to `c1ccc2c(c1)c1ccccc1n2-c1ccc2c(c1)c1ccccc1n2-c1ccc(-n2c3ccccc3c3cc(-n4c5ccccc5c5ccccc54)ccc32)cc1`, the emission maximum is on record as 372 nm (in C1CCOC1), 379 nm (in CC(C)=O), 372 nm (in Cc1ccccc1) and 383 nm (in ClCCl).

Take `Cc1cc(C)n2c1C=[N+]1[N+](=C3C=NC=CN3[B-]1(F)F)[B-]2(F)F`: the emission maximum (in ClCCl) was found to be 490 nm.

Regarding `Cc1ccc2c(c1)c1cc(C)ccc1n2-c1c(-n2c3ccccc3c3ccccc32)c(C#N)c(-n2c3ccccc3c3ccccc32)c(-n2c3ccc(C)cc3c3cc(C)ccc32)c1-n1c2ccccc2c2ccccc21`, the emission maximum (in Cc1ccccc1) came out at 480 nm.

Consider `c1ccc(-c2ccc(-c3ccc(-c4cc(-c5ccc(-c6ccc(-c7ccccc7)cc6)cc5)cc(-c5ccc(-c6ccc(-c7ccccc7)cc6)cc5)c4)cc3)cc2)cc1`, for which, where the note is “in C1COCCO1”, the emission maximum is on record as 375 nm.

`CC(C)(C)c1ccc2c(c1)sc1[n+]2[B-](F)(F)n2c(c3cccc4cccc2c43)=N1`: the emission maximum (in C1CCOC1) is 504 nm; the emission maximum (in CC#N) was found to be 502 nm; the emission maximum (in CCCCCC) was determined as 504 nm; the emission maximum (in Cc1ccccc1) was 506 nm; the emission maximum (in ClCCl) was found to be 534 nm.

For the compound `O=c1[nH]c(=O)n([C@@H]2O[C@H](CO)[C@@H](O)[C@H]2O)c2ccsc12`, the emission maximum amounted to 344 nm (in CC#N), 345 nm (in CCOC(C)=O), 350 nm (in CO) and 351 nm (in O).

Compound `c1ccc(-c2nc3sc4ccccc4c3s2)cc1` displayed an emission maximum (in CS(C)=O) of 412 nm.

`O=S(=O)(c1ccc(-c2ccc3c(c2)c2ccccc2n3-c2ccccc2)cc1)c1ccc(-c2ccc3c(c2)c2ccccc2n3-c2ccccc2)cc1`: the emission maximum is given as 365.07 nm (in C1CCCCC1); 403.28 nm (in C1CCOC1); 431.81 nm (in CN(C)C=O); 381 nm (in Cc1ccccc1); 402.48 nm (in ClC(Cl)Cl); 415.93 nm (in ClCCl).

In the case of `O=C(c1ccc(C(=C(c2ccccc2)c2ccccc2)c2ccccc2)cc1)c1ccc(-n2c3ccccc3c3ccccc32)cc1`, the emission maximum (in C1CCOC1) turned out to be 496 nm.

As for `COc1ccc(-c2csc(-c3ccncc3)n2)cc1`, the emission maximum by setting is: (in CC#N) 560 nm; (in CCO) 457 nm; (in CN(C)C=O) 451 nm; (in CS(C)=O) 455 nm; (in Cc1ccccc1) 415 nm; (in ClCCl) 548 nm.

As to `CCOC(=O)CCCCCn1c2ccc(N)cc2c(=O)c2cc3c(cc21)c(=O)c1cc(N)ccc1n3CCCCCC(=O)OCC`, the emission maximum (in ClCCl) amounted to 608 nm.

As for `Cc1cc(-n2c3ccccc3c3ccccc32)ccc1-c1ccc(S(=O)(=O)c2ccccc2)cc1C`, the emission maximum is 401.77 nm (in C1CCOC1), 450.48 nm (in CC#N), 349 nm (in Cc1ccccc1) and 419.86 nm (in ClCCl).

These data come from the Deep4Chem optical property database.
